{"source": "patent US20110112079A1", "about": "“PHOSPHODIESTERASE INHIBITORS” (priority 2008, published 2011)", "key": {"PDE1A": {"molecular_target": "T1, PDE1A (Homo sapiens, UniProt P54750)", "T1 construct": "purchased BPS Bioscience Inc", "T1 sequence (P54750 whole entry, canonical isoform)": "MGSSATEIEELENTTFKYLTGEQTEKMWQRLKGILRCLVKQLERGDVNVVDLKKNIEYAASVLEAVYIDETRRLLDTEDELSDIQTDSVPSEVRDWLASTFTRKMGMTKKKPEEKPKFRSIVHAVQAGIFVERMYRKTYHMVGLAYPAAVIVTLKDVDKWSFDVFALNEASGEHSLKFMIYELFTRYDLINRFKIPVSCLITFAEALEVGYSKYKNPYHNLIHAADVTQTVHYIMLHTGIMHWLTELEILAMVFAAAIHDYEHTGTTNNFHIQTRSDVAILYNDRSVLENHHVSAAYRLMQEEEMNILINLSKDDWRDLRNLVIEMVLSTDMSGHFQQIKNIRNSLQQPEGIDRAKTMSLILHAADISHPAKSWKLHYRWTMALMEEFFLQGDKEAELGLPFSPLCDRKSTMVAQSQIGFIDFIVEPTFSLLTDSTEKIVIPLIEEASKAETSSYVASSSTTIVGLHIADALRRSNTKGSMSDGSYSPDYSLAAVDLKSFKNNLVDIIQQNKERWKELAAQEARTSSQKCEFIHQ", "assay": "PDE isoform selectivity panel: PDE1A", "format": "biochemical", "conditions": "10 μM compound"}, "PDE1B": {"molecular_target": "PDE1B (Homo sapiens, UniProt Q01064)", "sequence (Q01064 whole entry, canonical isoform)": "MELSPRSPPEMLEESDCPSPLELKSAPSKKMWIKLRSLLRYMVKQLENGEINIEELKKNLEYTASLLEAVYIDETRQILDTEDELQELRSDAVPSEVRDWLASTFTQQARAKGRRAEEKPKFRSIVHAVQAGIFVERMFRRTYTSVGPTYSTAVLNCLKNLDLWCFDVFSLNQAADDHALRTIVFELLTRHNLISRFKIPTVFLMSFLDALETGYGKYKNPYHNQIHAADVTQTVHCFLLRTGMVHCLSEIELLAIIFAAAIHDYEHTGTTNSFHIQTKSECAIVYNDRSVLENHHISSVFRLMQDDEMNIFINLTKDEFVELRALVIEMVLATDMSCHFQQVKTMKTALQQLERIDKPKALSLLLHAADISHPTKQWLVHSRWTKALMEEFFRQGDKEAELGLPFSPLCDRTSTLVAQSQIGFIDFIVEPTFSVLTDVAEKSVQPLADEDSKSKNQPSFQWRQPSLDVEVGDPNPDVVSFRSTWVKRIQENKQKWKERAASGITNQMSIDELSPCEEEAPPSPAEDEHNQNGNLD", "assay": "PDE isoform selectivity panel: PDE1B", "format": "biochemical", "conditions": "read-out: % Inhibition of the Enzyme Activity at 10 μM"}, "PDE1C": {"molecular_target": "PDE1C (Homo sapiens, UniProt Q14123)", "sequence (Q14123 whole entry, canonical isoform)": "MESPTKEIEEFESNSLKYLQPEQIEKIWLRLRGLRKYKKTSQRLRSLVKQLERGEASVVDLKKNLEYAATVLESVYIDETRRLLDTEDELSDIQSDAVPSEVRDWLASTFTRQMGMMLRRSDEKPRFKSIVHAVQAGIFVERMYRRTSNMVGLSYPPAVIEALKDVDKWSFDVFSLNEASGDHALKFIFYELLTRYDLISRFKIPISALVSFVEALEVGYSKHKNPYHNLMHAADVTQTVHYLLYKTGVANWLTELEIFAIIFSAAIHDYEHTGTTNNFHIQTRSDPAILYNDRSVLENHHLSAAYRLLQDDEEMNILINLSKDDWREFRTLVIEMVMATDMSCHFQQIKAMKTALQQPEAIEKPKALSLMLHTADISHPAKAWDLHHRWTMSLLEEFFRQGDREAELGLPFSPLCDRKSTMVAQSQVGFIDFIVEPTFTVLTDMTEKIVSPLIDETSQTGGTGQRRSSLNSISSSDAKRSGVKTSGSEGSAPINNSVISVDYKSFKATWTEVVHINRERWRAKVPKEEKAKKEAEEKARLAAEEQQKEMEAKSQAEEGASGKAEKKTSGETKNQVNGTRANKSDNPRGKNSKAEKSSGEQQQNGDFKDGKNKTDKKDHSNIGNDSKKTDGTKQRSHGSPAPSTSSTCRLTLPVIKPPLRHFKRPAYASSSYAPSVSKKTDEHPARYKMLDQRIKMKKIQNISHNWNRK", "assay": "PDE isoform selectivity panel: PDE1C", "format": "biochemical", "conditions": "PDE1C; 10 μM compound"}, "PDE2A": {"molecular_target": "PDE2A (Homo sapiens, UniProt O00408)", "assay": "PDE isoform selectivity panel: PDE2A", "format": "biochemical", "conditions": "PDE2A; 10 μM compound", "procedure": "(§1) The potency of these compounds was assessed versus 20 different phosphodiesters (PDEs) using methods described in the foregoing Examples."}, "PDE3A": {"molecular_target": "T2, PDE3A (Homo sapiens, UniProt Q14432)", "T2 construct": "purchased BPS Bioscience Inc", "assay": "PDE isoform selectivity panel: PDE3A", "format": "biochemical", "conditions": "10 μM compound, read-out: % Inhibition of the Enzyme Activity at 10 μM", "procedure": "as §1"}, "PDE3B": {"molecular_target": "T3, PDE3B (Homo sapiens, UniProt Q13370)", "T3 construct": "purchased BPS Bioscience Inc", "assay": "PDE isoform selectivity panel: PDE3B", "format": "biochemical", "procedure": "as §1"}, "PDE4B1": {"molecular_target": "T4, PDE4B1 (Homo sapiens, UniProt Q07343)", "T4 construct": "purchased BPS Bioscience Inc", "assay": "PDE isoform selectivity panel: PDE4B1", "format": "biochemical", "procedure": "as §1"}, "PDE4B2": {"molecular_target": "T5, PDE4B2 (Homo sapiens, UniProt Q07343)", "T5 construct": "purchased BPS Bioscience Inc", "assay": "PDE isoform selectivity panel: PDE4B2", "format": "biochemical"}, "PDE4C1": {"molecular_target": "T6, PDE4C1 (Homo sapiens, UniProt Q08493)", "T6 construct": "purchased BPS Bioscience Inc", "assay": "PDE isoform selectivity panel: PDE4C1", "format": "biochemical"}, "PDE4D2": {"molecular_target": "T7, PDE4D2 (Homo sapiens, UniProt Q08499)", "T7 construct": "purchased BPS Bioscience Inc", "T7 sequence (Q08499 303-809 limits assumed)": "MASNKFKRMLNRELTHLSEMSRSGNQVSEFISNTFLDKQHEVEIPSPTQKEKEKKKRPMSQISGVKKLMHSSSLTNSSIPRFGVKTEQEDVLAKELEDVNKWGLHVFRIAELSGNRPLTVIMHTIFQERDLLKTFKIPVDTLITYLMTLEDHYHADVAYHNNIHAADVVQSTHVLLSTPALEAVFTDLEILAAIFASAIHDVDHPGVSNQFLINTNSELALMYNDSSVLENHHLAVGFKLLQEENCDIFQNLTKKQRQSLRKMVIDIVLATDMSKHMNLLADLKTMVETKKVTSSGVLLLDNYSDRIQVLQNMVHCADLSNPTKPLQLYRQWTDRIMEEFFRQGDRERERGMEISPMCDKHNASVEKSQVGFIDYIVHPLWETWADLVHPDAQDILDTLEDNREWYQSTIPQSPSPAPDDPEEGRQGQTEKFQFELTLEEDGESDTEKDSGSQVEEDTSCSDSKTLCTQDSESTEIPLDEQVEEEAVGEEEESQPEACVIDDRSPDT", "assay": "PDE isoform selectivity panel: PDE4D2", "format": "biochemical"}, "PDE5A1": {"molecular_target": "T8, PDE5A1 (Homo sapiens, UniProt O76074)", "T8 construct": "purchased BPS Bioscience Inc", "assay": "PDE isoform selectivity panel: PDE5A1", "format": "biochemical", "conditions": "PDE5A1; 10 μM compound"}, "PDE7A": {"molecular_target": "PDE7A (Homo sapiens, UniProt Q13946)", "assay": "PDE isoform selectivity panel: PDE7A", "format": "biochemical", "conditions": "PDE7A; 10 μM compound", "procedure": "as §1"}, "PDE7B": {"molecular_target": "PDE7B (Homo sapiens, UniProt Q9NP56)", "sequence (Q9NP56 whole entry, canonical isoform)": "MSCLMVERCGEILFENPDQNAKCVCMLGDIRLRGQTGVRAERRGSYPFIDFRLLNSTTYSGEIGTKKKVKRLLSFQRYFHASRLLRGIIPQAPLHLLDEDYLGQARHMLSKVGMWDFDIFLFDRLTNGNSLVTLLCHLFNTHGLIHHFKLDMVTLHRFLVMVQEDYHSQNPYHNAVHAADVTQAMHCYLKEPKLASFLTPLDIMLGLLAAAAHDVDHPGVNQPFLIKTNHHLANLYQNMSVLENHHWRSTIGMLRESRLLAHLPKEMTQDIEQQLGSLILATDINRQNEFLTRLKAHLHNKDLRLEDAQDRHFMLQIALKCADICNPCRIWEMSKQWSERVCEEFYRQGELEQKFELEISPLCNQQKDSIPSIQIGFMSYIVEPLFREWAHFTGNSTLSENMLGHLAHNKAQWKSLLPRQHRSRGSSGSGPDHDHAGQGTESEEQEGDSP", "assay": "PDE isoform selectivity panel: PDE7B", "format": "biochemical", "conditions": "PDE7B; 10 μM compound", "procedure": "as §1"}, "PDE8A1": {"molecular_target": "PDE8A1 (Homo sapiens, UniProt O60658)", "assay": "PDE isoform selectivity panel: PDE8A1", "format": "biochemical", "conditions": "10 μM compound", "procedure": "as §1"}, "PDE9A2": {"molecular_target": "T9, PDE9A2 (Homo sapiens, UniProt O76083)", "T9 construct": "purchased BPS Bioscience Inc", "T9 sequence (O76083 1-533 isoform O76083-2)": "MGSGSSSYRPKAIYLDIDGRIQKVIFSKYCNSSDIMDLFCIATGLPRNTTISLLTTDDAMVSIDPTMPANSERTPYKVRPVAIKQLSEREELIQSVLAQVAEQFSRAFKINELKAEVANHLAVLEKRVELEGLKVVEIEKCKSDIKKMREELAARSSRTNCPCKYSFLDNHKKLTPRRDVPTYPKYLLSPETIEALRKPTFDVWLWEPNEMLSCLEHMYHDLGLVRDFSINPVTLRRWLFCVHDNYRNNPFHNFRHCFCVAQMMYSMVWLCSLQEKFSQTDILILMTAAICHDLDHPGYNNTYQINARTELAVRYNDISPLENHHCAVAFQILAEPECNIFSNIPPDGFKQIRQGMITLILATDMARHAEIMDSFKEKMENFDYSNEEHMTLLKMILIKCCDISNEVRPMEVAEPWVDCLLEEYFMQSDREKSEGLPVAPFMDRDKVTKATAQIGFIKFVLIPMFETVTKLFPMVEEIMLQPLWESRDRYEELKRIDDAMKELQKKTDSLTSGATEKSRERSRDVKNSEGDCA", "assay": "PDE isoform selectivity panel: PDE9A2", "format": "biochemical", "conditions": "10 μM compound"}, "PDE10A1": {"molecular_target": "T10, PDE10A1 (Homo sapiens, UniProt Q9Y233)", "T10 construct": "purchased BPS Bioscience Inc", "assay": "PDE isoform selectivity panel: PDE10A1", "format": "biochemical"}, "PDE11A4": {"molecular_target": "PDE11A4 (Homo sapiens, UniProt Q9HCR9)", "sequence (Q9HCR9 whole entry, canonical isoform)": "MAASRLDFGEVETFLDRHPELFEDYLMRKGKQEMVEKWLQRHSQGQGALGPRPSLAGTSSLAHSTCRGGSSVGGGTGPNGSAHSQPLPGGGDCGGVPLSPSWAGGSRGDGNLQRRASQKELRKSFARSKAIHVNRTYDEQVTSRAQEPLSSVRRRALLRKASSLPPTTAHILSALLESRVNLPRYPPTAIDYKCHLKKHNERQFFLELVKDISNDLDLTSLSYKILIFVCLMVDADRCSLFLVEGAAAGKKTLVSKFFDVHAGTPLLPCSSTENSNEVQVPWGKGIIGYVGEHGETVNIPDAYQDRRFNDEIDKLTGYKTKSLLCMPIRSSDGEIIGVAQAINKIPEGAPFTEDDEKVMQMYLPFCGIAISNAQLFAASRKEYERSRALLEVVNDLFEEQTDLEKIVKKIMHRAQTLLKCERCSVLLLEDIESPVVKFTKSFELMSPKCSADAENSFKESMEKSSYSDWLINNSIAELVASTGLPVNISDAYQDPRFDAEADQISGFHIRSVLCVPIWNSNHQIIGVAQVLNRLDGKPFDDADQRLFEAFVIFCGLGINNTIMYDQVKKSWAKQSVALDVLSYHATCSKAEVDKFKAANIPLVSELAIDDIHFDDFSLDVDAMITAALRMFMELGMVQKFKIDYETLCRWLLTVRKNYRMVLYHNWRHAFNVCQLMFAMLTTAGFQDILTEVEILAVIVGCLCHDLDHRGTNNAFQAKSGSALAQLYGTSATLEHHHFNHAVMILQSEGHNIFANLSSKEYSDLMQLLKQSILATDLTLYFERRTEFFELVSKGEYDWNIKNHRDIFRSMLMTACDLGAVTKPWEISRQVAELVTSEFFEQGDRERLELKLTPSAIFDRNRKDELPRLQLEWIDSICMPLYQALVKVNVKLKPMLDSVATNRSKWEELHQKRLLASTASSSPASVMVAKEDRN", "assay": "PDE isoform selectivity panel: PDE11A4", "format": "biochemical", "conditions": "10 μM compound"}, "[1]": {"system": "PKA reporter Reg-F[1]:Cat-F[2] in β2AR-HEK293 cells", "assay": "Protein-fragment complementation (Rluc PCA PKA reporter) cell-based assay", "conditions": "FIG. 4B; 100 μM and 10 μM, 30 min", "procedure": "Cell culture: Stable β2AR-HEK293 cells were plated into 96-well white walled microliter plates (Corning) and grown in DMEM (Invitrogen) supplemented with 10% fetal bovine serum. Transient transfections of plasmids harboring the Rluc PCA PKA reporter were performed with FuGENE-6 reagent (Roche).\nRluc activities were monitored for the first 10 seconds after addition of the substrate benzyl-coelenterazine (5 μM, Nanolight).\nProtein-fragment Complementation (PCA) cell-based assay. […] To further examine the efficacy of the PDE inhibitors described herein, a reporter enzyme was used—Renilla reniformis luciferase (Rluc), where the N- and C-terminal fragments of Rluc are fused to the catalytic subunits (Cat) and inhibiting regulatory subunits (Reg) of protein kinase A (PKA)."}, "PDE4A1A [2]": {"molecular_target": "T11, PDE4A1A (Homo sapiens, UniProt P27815)", "T11 sequence (P27815 1-647 isoform P27815-4)": "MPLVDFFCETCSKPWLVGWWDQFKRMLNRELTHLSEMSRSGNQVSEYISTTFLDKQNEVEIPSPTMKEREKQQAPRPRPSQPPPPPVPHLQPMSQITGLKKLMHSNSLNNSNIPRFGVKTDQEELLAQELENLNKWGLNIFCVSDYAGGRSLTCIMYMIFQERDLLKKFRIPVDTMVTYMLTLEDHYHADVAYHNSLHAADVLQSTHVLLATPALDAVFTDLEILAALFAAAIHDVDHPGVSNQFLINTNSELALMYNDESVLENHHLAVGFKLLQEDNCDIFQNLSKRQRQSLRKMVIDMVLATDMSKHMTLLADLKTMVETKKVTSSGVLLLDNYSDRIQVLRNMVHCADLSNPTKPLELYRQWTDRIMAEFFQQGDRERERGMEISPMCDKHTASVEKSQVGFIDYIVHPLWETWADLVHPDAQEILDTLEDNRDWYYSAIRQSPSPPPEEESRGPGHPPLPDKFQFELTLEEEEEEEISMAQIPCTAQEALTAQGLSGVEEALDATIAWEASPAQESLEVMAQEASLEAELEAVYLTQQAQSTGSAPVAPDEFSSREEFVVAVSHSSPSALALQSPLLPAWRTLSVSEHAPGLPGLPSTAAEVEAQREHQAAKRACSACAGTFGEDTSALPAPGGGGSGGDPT", "procedure": "as §1"}, "PDE4": {"system": "PDE4", "conditions": "read-out: EC50 (concentration at 50% activity); FIG. 3; four separate experiments; normalized to 10 μM 1 response", "procedure": "Cyclic nucleotide-gated cation channel assay. The PDE4 cell line (BD Biosciences, Rockville, Md.) assay was conducted as described in reference 18.\nA flying reagent dispensing (FRD) workstation (Aurora Discovery, San Diego) was used to dispense cells and reagents to 1536-well plates. The compounds were serially diluted in DMSO in 384-well plates first and reformatted into 1536-well plates at 7 μL/well using a Cybi-well dispensing station with a 384-well head (Cybio, Inc. Woburn, Mass.). A Pintool station was used to transfer 23 nL of compounds in DMSO solution to the 1536-well assay plates. The final DMSO concentration in the assay plates was under 0.5%. During compound library screening, all plate manipulations were done on an automated robotic system (Kalypsys, San Diego, Calif.). 1 was used as the positive control and data was normalized to 10 μM 1 response (100% activity). All samples were tested in duplicate.\nCyclic-nucleotide gated ion channel cell-based assay. The first cell-based analysis of PDE4 activity involved an assay based on the coupling of a constitutively activated G-protein coupled receptor (GPCR) and cyclic-nucleotide gated (CNG) ion channel that are coexpressed in HEK293 cells. […] The read-out for this assay is based on measurement of membrane electrical potential by a potential-sensitive fluorophore (ACTOne™ dye kit). Inhibitors of PDE4 will interfere with the native enzymatic conversion of cAMP to AMP resulting in increased intracellular levels of the cyclic (cAMP) nucleotide due to constitutive activity of the GPCR. In response to increased amounts of cAMP, the CNG ion channel opens resulting in membrane polarization. The dye reacts to this alteration in membrane polarity with an increase in fluorescence detectable by fluorescence spectroscopy of whole cells read on a fluorescence microtiter plate reader."}, "PDE4A1A [3]": {"molecular_target": "T11, PDE4A1A", "assay": "IMAP fluorescence polarization assay with purified PDE4A1A", "format": "biochemical", "parameters": "purchased BPS Bioscience", "conditions": "Table 3; three separate experiments (SD provided); read-out: PDE4A IC50", "procedure": "Briefly, two microliters of PDE4A1A (0.05 ng/μl PDE4A1A, 10 mM Tris pH 7.2, 0.1% BSA, 10 mM MgCl2, 1 mM DTT, and 0.05% NaN3, final concentration) was dispensed into wells of 1536-well black/solid bottom assay plates (Greiner Bio-One North. America, NC) using a Flying Reagent Dispenser (Aurora Discovery, CA). The plates were centrifuged at 1000 rpm for 30 seconds and then 23 nanoliters of test compound was transferred to the assay plate using a Kalypsys pin tool. After incubation at room temperature for 5 min, 2 μL/well of cAMP (100 nM, final concentration) was dispensed for a final assay volume of 4 μL/well. The plates were centrifuged at 1000 rpm for 30 seconds, incubated for 40 minutes at room temperature, and then 4 microliters of IMAP binding reagent were added to the wells."}, "[4]": {"conditions": "read-out: % Inhibition of the Enzyme Activity at 10 μM"}}, "note": "Entries after “also recorded” stand apart in the source; their conditions may differ. Where two headings read alike, the source gives them in different places.", "data": [{"smiles": "COc1ccc(OC)c(-c2nnc3n2N=C(c2ccc(OC)c(O[C@@H]4CCOC4)c2)CS3)c1", "note": "[Compound 10, (R)-3-(2,5-dimethoxyphenyl)-6-(4-methoxy-3-(tetrahydrofuran-3-yloxy)phenyl)-7H-[1,2,4]-triazolo[3,4-b][1,3,4]thiadiazine]", "values": [{"measurement": "% Inhibition of the Enzyme Activity at 10 μM", "setting": "PDE1A", "value": 36, "unit": "%"}, {"measurement": "inhibition at 10 µM", "setting": "PDE1B", "value": 52, "unit": "%"}, {"measurement": "% Inhibition of the Enzyme Activity at 10 μM", "setting": "PDE1C", "value": 49, "unit": "%"}, {"measurement": "% Inhibition of the Enzyme Activity at 10 μM", "setting": "PDE2A", "value": 68, "unit": "%"}, {"measurement": "inhibition at 10 µM", "setting": "PDE3A", "value": 56, "unit": "%"}, {"measurement": "IC50", "setting": "PDE3B", "value": 4600, "unit": "nM"}, {"measurement": "IC50", "setting": "PDE4B1", "value": 2.3, "unit": "nM"}, {"measurement": "IC50", "setting": "PDE4B2", "value": 1.6, "unit": "nM"}, {"measurement": "IC50", "setting": "PDE4C1", "value": 46, "unit": "nM"}, {"measurement": "IC50", "setting": "PDE4D2", "value": 1.9, "unit": "nM"}, {"measurement": "% Inhibition of the Enzyme Activity at 10 μM", "setting": "PDE5A1", "value": 58, "unit": "%"}, {"measurement": "% Inhibition of the Enzyme Activity at 10 μM", "setting": "PDE7A", "value": 48, "unit": "%"}, {"measurement": "% Inhibition of the Enzyme Activity at 10 μM", "setting": "PDE7B", "value": 43, "unit": "%"}, {"measurement": "% Inhibition of the Enzyme Activity at 10 μM", "setting": "PDE8A1", "value": "inactive"}, {"measurement": "% Inhibition of the Enzyme Activity at 10 μM", "setting": "PDE9A2", "value": "inactive"}, {"measurement": "inhibition at 10 µM", "setting": "PDE9A2; [4]", "value": "< 26", "unit": "%"}, {"measurement": "IC50", "setting": "PDE10A1", "value": 632, "unit": "nM"}, {"measurement": "% Inhibition of the Enzyme Activity at 10 μM", "setting": "PDE11A4", "value": "inactive"}, {"measurement": "inhibition at 10 µM", "setting": "PDE11A4; [4]", "value": "< 26", "unit": "%"}, {"measurement": "effect on luminescence signal (PKA activation)", "setting": "[1]", "value": "marked loss of luminescence; also recorded: dose-dependent inhibition"}, {"measurement": "IC50", "setting": "PDE4A1A [2]", "value": "Sub-nanomolar potencies"}, {"measurement": "EC50", "setting": "PDE4", "value": 2.3, "unit": "nM"}, {"measurement": "IC50", "setting": "PDE4A1A [3]", "value": 3, "unit": "nM"}]}]}
